Experimental data as given in patent US20230138455A1, “METHODS OF DOSING OF APICAL SODIUM-DEPENDENT BILE ACID TRANSPORTER INHIBITORS (ASBTIs)” (Mirum Pharmaceuticals, Inc., priority 2021, published 2023).
Counter-ions that a name gives are not always drawn.

Key:
[1] = Phase 1 clinical study, incidence of GI TEAEs after Maralixibat 10 mg in fed versus fasted state; type: in vivo, human; settings: healthy participants
Method: (§1) FIG. 2 is pie charts showing the proportion of healthy participants who experienced gastrointestinal (GI) treatment-emergent adverse events (AEs) following ASBTI administration at mealtime versus in the fasted state for each of the three studies. […] In each clinical study, the ASBTI was administered in both a fed and fasted state, and rates of GI AEs were compared.

[2] = Phase 1 clinical study, incidence of GI TEAEs after Maralixibat 30 mg in fed versus fasted state; type: in vivo, human; settings: healthy participants
Method: as §1

[3] = Placebo-controlled trials in patients with ALGS, MRX dosed 30 mins prior to a meal, GI AE rates; type: in vivo, human; settings: PBO-controlled trials, dosed in the fasted state 30 mins prior to a meal (PBO 44.4%)
Method: (§2) AE data from 3 separate phase 1 clinical studies on MRX and VLX in healthy participants were compiled to assess the impact of ASBTI dosing vs mealtime on GI AEs (Table 1, FIG. 1). In each clinical study, the ASBTI was administered in both a fed and fasted state, and rates of GI AEs were compared. Separately, AE data from placebo (PBO)-controlled trials in patients with ALGS, where MRX was dosed 30 mins prior to a meal, allows a comparison of GI AE rates for MRX vs PBO.

[4] = system: fecal bile acid (fBA) excretion; assay: Effect of maralixibat on fecal bile acid (fBA) excretion in healthy dogs, dosing time relative to mealtime; type: in vivo; settings: for increase in fBA excretion, change compared with pre-treatment value: day 7
Method: FIG. 4 is a bar graph of the effect of maralixibat (MRX) on fecal bile acid (fBA) in dogs: change in fBA excretion from pre-treatment to day 7. The PD impact of ASBTI dosing time to mealtime was investigated in healthy dogs (FIG. 3). […] P<0.01 versus pre-treatment, by one-tail paired t-test. Data are presented as ±SEM (n = 7-8). % = change compared with pre-treatment value. Groups were dosed at the indicated times. Fecal samples were taken 48 hours before treatment initiation and for the last 72 hours of the 7-day treatment period and analyzed for bile acid content.

[5] = Phase 1 clinical study, incidence of GI TEAEs after Volixibat 75 mg in fed versus fasted state; type: in vivo, human; settings: healthy participants
Method: FIG. 1 depicts study designs, drugs (MRX = maralixibat, VLX = volixibat), doses and at mealtime/fasted timelines for certain embodiments according to the disclosure. *Fasting was started ≥10-12 hours before MRX dosing. ^‡Patients were randomized 1:1 to two cohorts and received sequentially fasted then at mealtime dosing, or at mealtime then fasted dosing.
FIG. 2 is pie charts showing the proportion of healthy participants who experienced gastrointestinal (GI) treatment-emergent adverse events (AEs) following ASBTI administration at mealtime versus in the fasted state for each of the three studies.
as §2

## CCCCC1(CCCC)CS(=O)(=O)c2ccc(N(C)C)cc2[C@@H](c2ccc(OCc3ccc(C[N+]45CCN(CC4)CC5)cc3)cc2)[C@H]1O [Maralixibat, maralixibat]
[1]; Fasted (n=6)
  Incidence of GI TEAEs: Any GI TEAE, % of participants: 0 (0%)
  Incidence of GI TEAEs: Any GI TEAE, number of participants: 0 (0%)
[1]; Fed (n=6)
  Incidence of GI TEAEs: Any GI TEAE, % of participants: 33%
  Incidence of GI TEAEs: Any GI TEAE, number of participants: 2
  Incidence of GI TEAEs: Diarrhea, % of participants: 17%
  Incidence of GI TEAEs: Diarrhea, number of participants: 1
  Incidence of GI TEAEs: Nausea, % of participants: 17%
  Incidence of GI TEAEs: Nausea, number of participants: 1
[2]; Fasted (n=12)
  Incidence of GI TEAEs: Abdominal pain, % of participants: 8%
  Incidence of GI TEAEs: Abdominal pain, number of participants: 1
  Incidence of GI TEAEs: Any GI TEAE, % of participants: 50%
  Incidence of GI TEAEs: Any GI TEAE, number of participants: 6
  Incidence of GI TEAEs: Diarrhea, % of participants: 50%
  Incidence of GI TEAEs: Diarrhea, number of participants: 6
[2]; Fed (n=12)
  Incidence of GI TEAEs: Abdominal pain, % of participants: 42%
  Incidence of GI TEAEs: Abdominal pain, number of participants: 5
  Incidence of GI TEAEs: Anorectal discomfort, % of participants: 8%
  Incidence of GI TEAEs: Anorectal discomfort, number of participants: 1
  Incidence of GI TEAEs: Any GI TEAE, % of participants: 100%
  Incidence of GI TEAEs: Any GI TEAE, number of participants: 12
  Incidence of GI TEAEs: Diarrhea, % of participants: 92%
  Incidence of GI TEAEs: Diarrhea, number of participants: 11
  Incidence of GI TEAEs: Nausea, % of participants: 25%
  Incidence of GI TEAEs: Nausea, number of participants: 3
[3]
  diarrhea reported, frequency in patients: 43.6%
[4]; dosing 30 minutes prior to the meal
  increase in fBA excretion, change compared with pre-treatment value: 231%
[4]; dosing 4 hours after the meal
  increase in fBA excretion, change compared with pre-treatment value: 229%
[4]; regardless of dosing time relative to the daily meal, p<0.01 by paired t-test
  fBA excretion vs pretreatment baseline: significantly increased fBA excretion

## CCCC[C@]1(CC)CS(=O)(=O)c2ccc(N(C)C)cc2[C@@H](c2cccc(NC(=O)N[C@@H]3O[C@H](COS(=O)(=O)O)[C@@H](O)[C@H](OCc4ccccc4)[C@H]3O)c2)[C@H]1O [Volixibat, (2R,3R,4S,5R,6R)-4-benzyloxy-6-{3-[3-((3S,4R,5R)-3-butyl-7-dimethylamino-3-ethyl-4-hydroxy-1,1-dioxo-2,3,4,5-tetrahydro-1H-benzo[b]thiepin-5-yl)-phenyl]-ureido}-3,5-dihydroxy-tetrahydro-pyran-2-ylmethyl) hydrogen sulfate]
[5]; Fasted (n=8)
  Incidence of GI TEAEs: Any GI TEAE, % of participants: 0 (0%)
  Incidence of GI TEAEs: Any GI TEAE, number of participants: 0 (0%)
[5]; Fed (n=8)
  Incidence of GI TEAEs: Any GI TEAE, % of participants: 75%
  Incidence of GI TEAEs: Any GI TEAE, number of participants: 6
  Incidence of GI TEAEs: Diarrhea, % of participants: 50%
  Incidence of GI TEAEs: Diarrhea, number of participants: 4
  Incidence of GI TEAEs: Loose stools, % of participants: 25%
  Incidence of GI TEAEs: Loose stools, number of participants: 2
